Assay results published in patent US11453666B2, “Autotaxin inhibitory compounds” (Cancer Research Technology Limited, priority 2015, dated 2022).
Where two headings read alike, the source gives them in different places.

Molecular target: human recombinant ATX (Homo sapiens, UniProt Q13822)
Test: Autotaxin (ATX) activity Quanta Red assay
Assay type: biochemical
Procedure, shortened: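 Recombinant human ATX reaction stopped after 2 h with Quanta Red stop solution; fluorescence read at […]. Controls with DMSO, with and without ATX; IC50 in duplicate.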

[1] = Table 2: additional compounds tested for ATX activity (Quanta Red Assay), read-out: Activity
[2] = read-out: Activity (ATX activity, Quanta Red assay; IC50)
[3] = human recombinant ATX 0.8 μg/mL, 2 hours at room temperature, IC50 determined in duplicate, read-out: Activity (ATX activity, Quanta Red assay; IC50)

## COc1ccc(Cn2c(CCC(=O)NCc3ccc(C)cc3)nc3cccnc32)cc1 [Example 220, 3-[3-(4-Methoxy-benzyl)-3H-imidazo[4,5-b]pyridin-2-yl]-N-(4-methyl-benzyl)-propionamide]
[1]
  IC50: 125 nM

## O=C(CCc1nc2cccnc2n1Cc1ccc(OC(F)(F)F)cc1)NC[C@H](O)c1ccccc1 [Example 37, N-((R)-2-Hydroxy-2-phenyl-ethyl)-3-[3-(4-trifluoromethoxy-benzyl)-3H-imidazo[4,5-b]pyridin-2-yl]-propionamide]
[2]
  IC50: 7 nM

## C[C@H](NC(=O)CCc1nc2cccnc2n1Cc1ccc(OC(F)(F)F)cc1)c1ccccn1 [Example 29, N-((S)-1-Pyridin-2-yl-ethyl)-3-[3-(4-trifluoromethoxy-benzyl)-3H-imidazo[4,5-b]pyridin-2-yl]-propionamide]
[2]
  IC50: 5 nM

## CC[C@H]1CN(c2ccc([C@H](C)NC(=O)CCc3nc4cccnc4n3Cc3ccc(OC(F)(F)F)cc3)cc2)CCN1 [Example 172, N-{(S)-1-[4-((S)-3-Ethyl-piperazin-1-yl)-phenyl]-ethyl}-3-[3-(4-trifluoromethoxy-benzyl)-3H-imidazo[4,5-b]pyridin-2-yl]-propionamide]
[2]
  IC50: 2 nM

## COc1cc(OC(F)(F)F)ccc1CNC(=O)CCc1nc2cccnc2n1Cc1ccc(F)c(F)c1 [Example 74, 3-[3-(3,4-Difluoro-benzyl)-3H-imidazo[4,5-b]pyridin-2-yl]-N-(2-methoxy-4-trifluoromethoxy-benzyl)-propionamide]
[2]
  IC50: 339 nM

## O=C(CCc1nc2cccnc2n1Cc1cccs1)NCc1ccccc1 [Example 226, N-Benzyl-3-(3-thiophen-2-ylmethyl-3H-imidazo[4,5-b]pyridin-2-yl)-propionamide]
[1]
  IC50: 807 nM

## COc1ccc(Cn2c(CCC(=O)NCc3ccc(Cl)cc3)nc3cccnc32)cc1 [Example 218, N-(4-Chloro-benzyl)-3-[3-(4-methoxy-benzyl)-3H-imidazo[4,5-b]pyridin-2-yl]-propionamide]
[1]
  IC50: 23 nM

## O=C(CCc1nc2cccnc2n1Cc1ccccc1)NCc1cccs1 [Example 3, 3-(3-Benzyl-3H-imidazo[4,5-b]pyridin-2-yl)-N-thiophen-2-ylmethyl-propionamide]
[3]
  IC50: 855 nM

## C[C@H](NC(=O)NCc1nc2cccnc2n1Cc1ccc(F)c(F)c1)c1ccc(Br)cc1 [Example 158, 1-[(S)-1-(4-Bromo-phenyl)-ethyl]-3-[3-(3,4-difluoro-benzyl)-3H-imidazo[4,5-b]pyridin-2-ylmethyl]-urea]
[2]
  IC50: 17 nM

## C[C@H](NC(=O)CCc1nc2ccncc2n1Cc1ccc(F)cc1)c1ccccc1 [Example 130, 3-[3-(4-Fluoro-benzyl)-3H-imidazo[4,5-c]pyridin-2-yl]-N-((S)-1-phenyl-ethyl)-propionamide]
[2]
  IC50: 21 nM

## COc1ccc(Cn2c(CCC(=O)NCc3ccccc3C)nc3cccnc32)cc1 [Example 106, 3-[3-(4-Methoxy-benzyl)-3H-imidazo[4,5-b]pyridin-2-yl]-N-(2-methyl-benzyl)-propionamide]
[2]
  IC50: 98 nM

## COc1ccc(Cn2c(CCC(=O)NCc3ccccc3F)nc3cccnc32)cc1 [Example 114, N-(2-Fluoro-benzyl)-3-[3-(4-methoxy-benzyl)-3H-imidazo[4,5-b]pyridin-2-yl]-propionamide]
[2]
  IC50: 301 nM

## CN(C)CCCOc1ccc(CNC(=O)CCc2nc3ccncc3n2Cc2ccc(OC(F)(F)F)cc2)cc1 [Example 128, N-[4-(3-Dimethylamino-propoxy)-benzyl]-3-[3-(4-trifluoromethoxy-benzyl)-3H-imidazo[4,5-c]pyridin-2-yl]-propionamide]
[2]
  IC50: 17 nM

## O=C(CCc1nc2cccnc2n1Cc1ccc(OC(F)(F)F)cc1)Nc1ncco1 [Example 78, N-Oxazol-2-yl-3-[3-(4-trifluoromethoxy-benzyl)-3H-imidazo[4,5-b]pyridin-2-yl]-propionamide]
[2]
  IC50: 800 nM

## O=C(NCc1nc2cccnc2n1Cc1ccc(F)c(F)c1)N[C@@H](CO)c1ccccc1 [Example 162, 1-[3-(3,4-difluoro-benzyl)-3H-imidazo[4,5-b]pyridin-2-ylmethyl]-3-((R)-2-hydroxy-1-phenyl-ethyl)-urea]
[2]
  IC50: 209 nM

## C[C@H](NC(=O)CCc1nc2cccnc2n1Cc1ccc(F)c(F)c1)c1ccc(N2CCN(C)CC2)cc1 [Example 182]
[2]
  IC50: 8 nM

## C[C@H](NC(=O)NCc1nc2cccnc2n1Cc1ccc(F)cc1)c1ccccc1 [Example 161, 1-[3-(4-fluoro-benzyl)-3H-imidazo[4,5-b]pyridin-2-ylmethyl]-3-((S)-1-phenyl-ethyl)-urea]
[2]
  IC50: 115 nM

## CC(C)COc1ccc(Cn2c(CCC(=O)N[C@@H](C)c3ccc(F)cc3)nc3cccnc32)cc1 [Example 156, N—[(S)-1-(4-fluoro-phenyl)-ethyl]-3-[3-(4-isobutoxy-benzyl)-3H-imidazo[4,5-b]pyridin-2-yl]-propionamide]
[2]
  IC50: 704 nM

## O=C(CCc1nc2cccnc2n1Cc1cccs1)NCc1ccc(F)cc1 [Example 224, N-(4-Fluoro-benzyl)-3-(3-thiophen-2-ylmethyl-3H-imidazo[4,5-b]pyridin-2-yl)-propionamide]
[1]
  IC50: 685 nM

## COc1ccc(Cn2c(CCC(=O)NCc3ccc(F)c(F)c3)nc3cccnc32)cc1 [Example 107, N-(3,4-Difluoro-benzyl)-3-[3-(4-methoxy-benzyl)-3H-imidazo[4,5-b]pyridin-2-yl]-propionamide]
[2]
  IC50: 102 nM

## COc1ccc(CNC(=O)CCc2nc3cc(C)cnc3n2Cc2ccc(F)cc2)cc1 [Example 109, 3-[3-(4-Fluoro-benzyl)-6-methyl-3H-imidazo[4,5-b]pyridin-2-yl]-N-(4-methoxy-benzyl)-propionamide]
[2]
  IC50: 185 nM

## O=C(CSc1nc2cccnc2n1Cc1ccc(OC(F)(F)F)cc1)N[C@@H](CO)c1ccccc1 [Example 142, N-((R)-2-Hydroxy-1-phenyl-ethyl)-2-[3-(4-trifluoromethoxy-benzyl)-3H-imidazo[4,5-b]pyridin-2-ylsulfanyl]-acetamide]
[2]
  IC50: 1 nM

## O=C(CCc1nc2cccnc2n1Cc1ccc(OC(F)(F)F)cc1)N[C@@H]1c2ccccc2C[C@H]1O [Example 9, N-((1R,2R)-2-Hydroxy-indan-1-yl)-3-[3-(4-trifluoromethoxy-benzyl)-3H-imidazo[4,5-b]pyridin-2-yl]-propionamide]
[2]
  IC50: 1 nM

## O=C(CCc1nc2cccnc2n1Cc1ccc(OC(F)(F)F)cc1)NC(CO)c1ccc(OC(F)(F)F)cc1 (centres unmarked) [Example 20, N-[2-Hydroxy-1-(4-trifluoromethoxy-phenyl)-ethyl]-3-[3-(4-trifluoromethoxy-benzyl)-3H-imidazo[4,5-b]pyridin-2-yl]-propionamide]
[2]
  IC50: 3 nM

## C[C@H](OC(=O)NCc1nc2cccnc2n1Cc1ccc(F)cc1)c1ccc(F)cc1 [Example 164, [3-(4-Fluoro-benzyl)-3H-imidazo[4,5-b]pyridin-2-ylmethyl]-carbamic acid (S)-1-(4-fluoro-phenyl)-ethyl ester]
[3]
  IC50: 957 nM

## Cc1csc(NC(=O)CCc2nc3cccnc3n2Cc2ccc(OC(F)(F)F)cc2)n1 [Example 77, N-(4-Methyl-thiazol-2-yl)-3-[3-(4-trifluoromethoxy-benzyl)-3H-imidazo[4,5-b]pyridin-2-yl]-propionamide]
[2]
  IC50: 714 nM

## Cc1ccc2nc(CCC(=O)N[C@@H](C)c3ccc(F)cc3)n(Cc3ccc(F)cc3)c2n1 [Example 121, 3-[3-(4-fluoro-benzyl)-5-methyl-3H-imidazo[4,5-b]pyridin-2-yl]-N—[(S)-1-(4-fluoro-phenyl)-ethyl]-propionamide]
[2]
  IC50: 269 nM

## COc1ccc(Cn2c(CCC(=O)NCCc3cccc(C)c3)nc3cccnc32)cc1 [Example 229, 3-[3-(4-Methoxy-benzyl)-3H-imidazo[4,5-b]pyridin-2-yl]-N-(2-m-tolyl-ethyl)-propionamide]
[1]
  IC50: 466 nM

## C[C@H](NC(=O)COc1nc2cccnc2n1Cc1ccc(OC(F)(F)F)cc1)c1ccc(Cl)cc1 [Example 152, N—[(S)-1-(4-chloro-phenyl)-ethyl]-2-[3-(4-trifluoromethoxy-benzyl)-3H-imidazo[4,5-b]pyridin-2-yloxy]-acetamide]
[3]
  IC50: 5 nM

## O=C(CCc1nc2cccnc2n1Cc1ccccc1)NCC1CCCCC1 [Example 111, 3-(3-Benzyl-3H-imidazo[4,5-b]pyridin-2-yl)-N-cyclohexylmethyl-propionamide]
[2]
  IC50: 406 nM

## O=C(CCc1nc2cccnc2n1Cc1ccc(OC(F)(F)F)cc1)N[C@H](CO)Cc1ccccc1 [Example 204, N-((S)-1-Hydroxymethyl-2-phenyl-ethyl)-3-[3-(4-trifluoromethoxy-benzyl)-3H-imidazo[4,5-b]pyridin-2-yl]-propionamide]
[2]
  IC50: 89 nM

## Cc1cnc2c(c1)nc(CCC(=O)N[C@@H](C)c1ccc(N3CCN[C@@H](C)C3)cc1)n2Cc1ccc(OC(F)(F)F)cc1 [Example 192, N-{(S)-1-[4-((S)-3-Methyl-piperazin-1-yl)-phenyl]-ethyl}-3-[6-methyl-3-(4-trifluoromethoxy-benzyl)-3H-imidazo[4,5-b]pyridin-2-yl]-propionamide]
[2]
  IC50: 56 nM

## O=C(CCc1nc2cccnc2n1Cc1ccc(OC(F)(F)F)cc1)N[C@H](CO)Cc1ccc(O)cc1 [Example 205, N-[(S)-1-Hydroxymethyl-2-(4-hydroxy-phenyl)-ethyl]-3-[3-(4-trifluoromethoxy-benzyl)-3H-imidazo[4,5-b]pyridin-2-yl]-propionamide]
[2]
  IC50: 188 nM

## COc1ccc(Cn2c(CCC(=O)N[C@@H](C)c3ccc(Cl)cc3)nc3cccnc32)cc1F [Example 24, N-[(S)-1-(4-Chloro-phenyl)-ethyl]-3-[3-(3-fluoro-4-methoxy-benzyl)-3H-imidazo[4,5-b]pyridin-2-yl]-propionamide]
[2]
  IC50: 4 nM

## COc1ccc(Cn2c(CCC(=O)Nc3ccc(F)cc3)nc3cccnc32)cc1 [Example 227, N-(4-Fluoro-phenyl)-3-[3-(4-methoxy-benzyl)-3H-imidazo[4,5-b]pyridin-2-yl]-propionamide]
[1]
  IC50: 3830 nM
